The subject of one experiment is DN3a thymocytes. As to the kind of experiment: Relative viability and LC50 on DN3a thymocytes of WT, Lmo2^Tg, Lmo2^Tg;STAT5-CA^Tg and Lmo2^Tg;N1-ICD^Tg mice, 48 h. As to conditions: Lmo2Tg;STAT5-CATg. Here is the method: Pre-leukemic and leukemic thymocytes were purified by flow cytometry and co-cultured on GFP-positive OP9 and OP9-DL1 stromal cell lines, as described previously. Thymocytes were co-cultured in reconstituted alpha-MEM medium (#12318, Gibco, Grand Island NY, USA) supplemented with 20% FCS (#12318), HEPES 10 mM (#15630-080), sodium pyruvate 1 mM (#11360-070), β-mercaptoethanol 55 μM (#21985-023), Glutamax 2 mM (#15750-060), 1% Penicillin/Streptomycin (#15140-122), 5 ng/mL rmFLT-3 ligand (#250-31 L, Pepro Tech), 5 ng/mL rmIL-7 (#217-17, Pepro Tech) and 25 ng/mL rmSCF (#250-03, Pepro Tech). After 48 h of co-culture, thymocytes were counted and analysed by FACS. […]
viability of wild-type (WT), Lmo2 Tg, Lmo2Tg;STAT5-CA Tg and Lmo2Tg;N1-ICD Tg DN3a thymocytes […]
normalized to cells treated with vehicle (%DMSO). Mean ± SEM of n=4 biological replicates. b, […]
thymocytes from 6-week old wild-type (WT), Lmo2 Tg, Lmo2Tg;STAT5-CATg and Lmo2Tg ;N1-ICD Tg mice. Mean ± SD of n=4 biological replicates are shown. 2-way ANOVA with Tukey’s correction test; […]
(1 picture or pasted object on this page, not shown here)
*P<0.05, *** P<0.001 compared to WT; #P<0.05, ##P<0.01, ###P<0.001 compared to L mo2Tg. c, Levels of pStat5 (left) after stimulation with IL-7 , as well as Hes1 expression (right) after co-culture on OP9- […]
(0.2 µM), Ruxolitinib (0.2 µM) and DAPT (0.1 µM). Unstimulated cells were used as negative controls (dashed line). Student’s t -test, ** P<0.01, *** P<0.001 compared to unstimulated cells. MFI ± SEM, 1-way ANOVA with Tukey’s correction test; **P<0.01, *** P<0.001 compared to vehicle. d, Clonogenic assay of normal murine hematopoietic stem and progenitor cells (HSPCs) cultured in the presence […]
± SD, Student’s t -test ( n=4) **P<0.01 compared to vehicle. e, Relative viability of wild-type (WT), […]
2 (0.2 µM), Ruxolitinib (0.2 µM) and DAPT (0.1 µM) for 48 hours. Viability was normalized to cells treated with vehicle (%DMSO, which was reported as 100). Mean ± SEM, 2-way ANOVA with Tukey’s correction test, **P<0.01, *** P<0.001 compared to vehicle.

In experiment [1] the test system is IL-7 signalling (pStat5) in Ba/F3-IL7R cells. Briefly: IL-7-induced phospho-Stat5 in Ba/F3-IL7R cells (phosphoflow). The class given is cell-based, murine. As to conditions: Ba/F3-IL7R cells; result in words. The protocol:
(§1) Ba/F3 cells (kindly provided by a person from The Walter and Eliza Hall Institute of Medical Research) were infected with pMIG-R1/Il7r retroviral supernatants produced in 293T cells, and transduced cells were sorted with a BD Influx (BD Australia) and selected by culture in medium supplemented with 5 ng/mL rmIL-7 (#217-17, Pepro Tech, Rocky Hill NJ, USA) for 7 days. Ba/F3 cells stably expressing Il7r (Ba/F3-IL7R) were infected with TxTCPVIR-Stat5-CA retroviral supernatants produced in 293T. Cell sorting was performed with a BD Influx and transduced cells were treated with doxycycline for 48 h to induce the expression of the Stat5-CA-T2A-mCherry fusion protein.
Phosphoflow analysis was performed as previously described. Briefly, 2 × 10^6 cells stained for surface markers were subsequently resuspended into PBS 1× + 4% v/v paraformaldehyde and incubated for 10 min at 4 °C for fixation. Fixed cells were washed twice using PBS 1×, then resuspended in pre-chilled at −20 °C Perm Buffer III (BD Pharmingen) and incubated 30 min at 4 °C for permeabilization. Cells were washed twice using PBS 1× and incubated overnight at 4 °C in PBS 1× + 2% v/v fetal calf serum (FCS) with Cell Signalling purified antibodies (Genesearch Pty Ltd, Arundel QLD, Australia) against pSTAT5 (Tyr694; #9359), phospho-p38 MAPK (Thr180/Tyr182; #4511), phospho-p44/42 (Erk1/2; #9102), phospho-S6 (Ser235/236; #4856) and phospho-Akt (Ser473; #9271) or isotype control. For intracellular HES1 detection, cells stained for surface markers were subsequently fixed and permeabilized using the BD Cytofix/Cytoperm^TM Kit and incubated overnight at 4 °C in PBS 1× + 2% v/v FCS with a purified antibody against HES1 (D6PU; #11988, Cell Signalling) or isotype control. After staining with primary antibodies for phosphoflow or intracellular detection, cells were incubated in permeabilization buffer with donkey Alexa Fluor 488-conjugated anti-rabbit secondary antibody (A-21206, lot #1910751, Molecular Probes, Invitrogen) or goat Alexa Fluor 546-conjugated anti-rabbit secondary antibody (A-11035, lot #1904467, Molecular Probes, Invitrogen) for 1 h on ice, and washed twice in PBS 1×. Fluorescence-activated cell sorting (FACS) analysis was performed using LSRII and LSR Fortessa cytometers, following the gating strategies described in Supplementary Fig. 11. Cell sorting was performed with a FACSAria or BD Influx.
For in vitro IL-7 stimulation assays, cells were starved in serum-free DMEM at 37 °C, then incubated with either vehicle or Dynole 34-2 or Ruxolitinib (INCB018424; #S1378, Selleckchem), or DAPT (GSI-IX; #S2215, Selleckchem) resuspended in DMSO for 1 h. Thymocytes were subsequently stimulated with 25 ng/mL IL-7 at 37 °C for 20 min and washed twice using cold PBS 1×. Cells were incubated with 25 ng/mL Rat IgG (Sigma-Aldrich Pty Ltd, Castle Hill NSW, Australia) and with a PE-conjugated antibody for detection of IL-7R (CD127) for 1 h on ice, as described in the FACS analysis section. PE-conjugated isotype was used as negative control. Cells were washed twice, fixed and phosphoflow analysis performed as described in the FACS analysis section. The analysis was performed in triplicate and the mean fluorescence intensity (MFI) observed without stimulation was reported as 100%.

Experiment [2] relates to Ba/F3-IL7R^Stat5-CA cells. As to the kind of experiment: pStat5 and proliferation of Ba/F3-IL7R^Stat5-CA cells with IL-7 or doxycycline. The class given is cell-based, murine. The following applies: relative to data from day 0, reported as 1, groups +IL-7 -DOX or -IL-7 +DOX. The protocol:
as §1, with “protein. […]” for “protein.”
(red) assessed by flow cytometry (top) and Western blots (bottom). MFI ± SD of n=2 technical replicates, performed in 2 independent experiments (***P<0.001 compared to unstimulated cells ; white bar). For Western blots, Actin was used as a loading control. f, Proliferation of BaF3-IL7R Stat5-CA cells in absence (+IL-7 –DOX; grey) or presence (-IL-7 +DOX; red) of doxycycline. Fold expansion was calculated from the number of cells initially put into culture at day 0. […]

Experiment [3] concerns Ba/F3-IL7R^Stat5-CA cells. Briefly: Cytotoxic activity in IL-7-dependent and IL-7-independent Ba/F3-IL7R^Stat5-CA cells. The class given is cell-based, murine. The following applies: for Survival (%) over survival at day 0, reported as 100%: Ba/F3-IL7R^Stat5-CA cells, dose = IC50 or LC50 of each drug.
Excerpt: The doxycycline-inducible dual-colour TRMPVIR (TRE-dsRed-miR30/shRNA-PGK-Venus-IRES-rtTA3) retroviral vector[84] was kindly given by R. A. Dickins and was modified by replacing the dsRed-miR30/shRNA sequence by a T2A self-cleaving peptide[85] fusioned with the mCherry fluorescent protein (from TRIPZ, Addgene) inserted into the BamHI and EcoRI sites of the plasmid downstream of the TRE promoter to generate the TxTCPVIR (TRE-gene-T2A-mCherry-PGK-Venus-IRES-rtTA3) retroviral vector. Using standard cloning techniques, we inserted the full-length sequence of Stat5-CA from the pMig-R1 construct into the TxTCPVIR vector to generate the TxTCPVIR-Stat5-CA construct. All subcloned constructs were verified by DNA sequencing (Micromon, Monash University, Australia). Detailed cloning strategies, primers sequences and vectors are available on request.
as §1
Flow cytometry analyses were performed as previously described[10],[86] on single-cell suspensions stained using BD Pharmingen antibodies (BD Australia, North Ryde NSW, Australia) against mouse CD4 (RM4-5), CD8 (53-6.7), CD25 (PC61.5), CD44 (IM7), CD45.1 (A20), CD45.2 (104), Thy1.2 (53-2.1; #561616), TCRβ (H57-597), CD117 (ACK45), CD135 (A2F10.1), CD150 (TC15-12F12.2; #562373), B220 (RA3-6B2; #563708), CD3 (145-2C11; #563004), CD19 (ID3; #557655), Gr-1 (RB6-8C5; #563299 and #565033), CD11b (M1/70; #563015 and #560455), Ter119 (Ter119; #565523 and #557909), Sca-1 (D7; #558160) and an eBioscience antibody (eBioscience, Invitrogen) against mouse NOTCH1 (22E5). DN3 populations and IL-7R were stained using BioLegend antibodies (Australian Biosearch, Balcatta WA, Australia) against mouse CD28 (E18) and CD127 (A7R34), respectively. Apoptosis was measured using an antibody against AnnexinV (#556420, BD Australia) and the […] Sytox Blue (BD Australia) following the manufacturer’s protocol.

We go through 5 compounds from PMC7719179, “Small molecule inhibition of Dynamin-dependent endocytosis targets multiple niche signals and impairs leukemia stem cells” (Nature Communications, 2020).

Values joined by “and” are separate entries in the source; they are usually repeats but may differ in a detail not shown here. Identical values can stand only once.

Regarding `CCCCCCCCNC(=O)/C(C#N)=C/c1cn(CCCN(C)C)c2ccccc12` [Dynole 34], in the experiment on DN3a thymocytes, the “Survival (% DMSO)” value is 50.05 % DMSO and 55.36 % DMSO and 37.5 % DMSO and 40.03 % DMSO.

As for `O=C(N/N=C/c1ccc(O)c(O)c1)c1cc2ccccc2cc1O` [Dynasore, reference compound], the “inhibition of IL-7 signalling as measured by loss of phospho-Stat5” value in experiment [1] is recorded as “dose-dependent inhibition”.

On to `O=C(NN=Cc1cc(O)c(O)cc1O)c1cc2ccccc2cc1O` [Dyngo 4a, 3-Hydroxy-N’-[(2,4,5-trihydroxyphenyl)-methylidene]-naphthalene-2-carbohydrazide, reference compound], for which the “inhibition of IL-7 signalling as measured by loss of phospho-Stat5” value in experiment [1] was “dose-dependent inhibition”.

Turning to IL-7, the Fold expansion in experiment [2] (24 h) was 0.74 and 0.75 and 0.79 and 0.97 and 0.91 and 0.98; in experiment [2] (72 h), 2.37 and 2.58 and 4.20 and 3.96 and 3.95 and 3.51; in experiment [2] (120 h), 9.32 and 11.24 and 15.76 and 15.48 and 14.68 and 15.08.

For `CC[C@]1(O)C[C@H]2CN(CCc3c([nH]c4ccccc34)[C@@](C(=O)OC)(c3cc4c(cc3OC)N(C=O)[C@H]3[C@@](O)(C(=O)OC)[C@H](OC(C)=O)[C@]5(CC)C=CCN6CC[C@]43[C@@H]65)C2)C1` [Vincristine], the “Survival (%) over survival at day 0, reported as 100%” value in experiment [3] (+IL-7 -DOX, 0 h) was 100.02% and 100.26% and 100.28% and 99.72% and 99.53% and 100.47%; in experiment [3] (+IL-7 -DOX, 24 h) it was 97.78% and 97.03% and 92.76% and 93.67% and 88.90% and 79.18%; in experiment [3] (+IL-7 -DOX, 48 h), 60.76% and 61.24% and 44.94% and 67.20% and 75.05% and 65.49%; in experiment [3] (+IL-7 -DOX, 72 h), 42.05% and 38.67% and 50.69% and 46.55% and 54.10% and 54.58%; in experiment [3] (+IL-7 -DOX, 96 h) it was 9.57% and 5.19% and 6.30%; in experiment [3] (-IL-7 +DOX, 0 h) it was 100.62% and 100.47% and 99.53% and 102.59% and 99.98% and 100.02%. Besides, the “Survival (%) over survival at day 0, reported as 100%” value in experiment [3] (-IL-7 +DOX, 24 h) was 84.77% and 83.72% and 89.11% and 91.00% and 83.57% and 82.00%; in experiment [3] (-IL-7 +DOX, 48 h), 82.10% and 78.50% and 82.90% and 69.10% and 67.20% and 82.60%; in experiment [3] (-IL-7 +DOX, 72 h), 60.60% and 57.90% and 64.60% and 57.00% and 62.20% and 65.20%; in experiment [3] (-IL-7 +DOX, 120 h), 34.10% and 40.50% and 30.80% and 32.50% and 34.90% and 26.60%. In experiment [3] (result in words), the “sensitivity of Ba/F3-IL7R^Stat5-CA cells with constitutive pStat5 (doxycycline)” value is reported as “equally effective”.
